# Columns and labels:
# [1] = target: Ribosomal protein S6 kinase alpha-1 (Homo sapiens) (UniProt Q15418); assay: Inhibition of RSK1 at 1 uM
# [2] = target: Serine/threonine-protein kinase TBK1 (Homo sapiens) (UniProt Q9UHD2); assay: Inhibition of TBK1 at 1 uM
# [3] = target: Tyrosine-protein kinase receptor TYRO3 (Homo sapiens) (UniProt Q06418); assay: Inhibition of TYRO3 at 1 uM
# [4] = target: Tyrosine-protein kinase Yes (Homo sapiens) (UniProt P07947); assay: Inhibition of YES at 1 uM
# [5] = Plasma concentration in mouse at 33 mg/kg, po after 8 hrs; assay type: ADME, organism-based; design: dose 33 mg/kg, route oral
# [6] = target: Interleukin-1 receptor-associated kinase 4 (Homo sapiens, UniProt Q9NWZ3); assay: Inhibition of IRAK4
# [7] = target: Tyrosine-protein kinase ITK/TSK (Homo sapiens, UniProt Q08881); assay: Inhibition of ITK
# [8] = target: Citron Rho-interacting kinase (Homo sapiens, UniProt O14578); assay: Inhibition of CIT
# [9] = target: Interleukin-1 receptor-associated kinase 1 (Homo sapiens, UniProt P51617); assay: Inhibition of IRAK1
# [10] = target: Serine/threonine-protein kinase TBK1 (Homo sapiens, UniProt Q9UHD2); assay: Inhibition of NAK
# [11] = target: Tyrosine-protein kinase ABL1 (Homo sapiens) (UniProt P00519); assay: Inhibition of ABL1 at 1 uM
# Sequence of Tyrosine-protein kinase ABL1 (Homo sapiens) (P00519 whole entry): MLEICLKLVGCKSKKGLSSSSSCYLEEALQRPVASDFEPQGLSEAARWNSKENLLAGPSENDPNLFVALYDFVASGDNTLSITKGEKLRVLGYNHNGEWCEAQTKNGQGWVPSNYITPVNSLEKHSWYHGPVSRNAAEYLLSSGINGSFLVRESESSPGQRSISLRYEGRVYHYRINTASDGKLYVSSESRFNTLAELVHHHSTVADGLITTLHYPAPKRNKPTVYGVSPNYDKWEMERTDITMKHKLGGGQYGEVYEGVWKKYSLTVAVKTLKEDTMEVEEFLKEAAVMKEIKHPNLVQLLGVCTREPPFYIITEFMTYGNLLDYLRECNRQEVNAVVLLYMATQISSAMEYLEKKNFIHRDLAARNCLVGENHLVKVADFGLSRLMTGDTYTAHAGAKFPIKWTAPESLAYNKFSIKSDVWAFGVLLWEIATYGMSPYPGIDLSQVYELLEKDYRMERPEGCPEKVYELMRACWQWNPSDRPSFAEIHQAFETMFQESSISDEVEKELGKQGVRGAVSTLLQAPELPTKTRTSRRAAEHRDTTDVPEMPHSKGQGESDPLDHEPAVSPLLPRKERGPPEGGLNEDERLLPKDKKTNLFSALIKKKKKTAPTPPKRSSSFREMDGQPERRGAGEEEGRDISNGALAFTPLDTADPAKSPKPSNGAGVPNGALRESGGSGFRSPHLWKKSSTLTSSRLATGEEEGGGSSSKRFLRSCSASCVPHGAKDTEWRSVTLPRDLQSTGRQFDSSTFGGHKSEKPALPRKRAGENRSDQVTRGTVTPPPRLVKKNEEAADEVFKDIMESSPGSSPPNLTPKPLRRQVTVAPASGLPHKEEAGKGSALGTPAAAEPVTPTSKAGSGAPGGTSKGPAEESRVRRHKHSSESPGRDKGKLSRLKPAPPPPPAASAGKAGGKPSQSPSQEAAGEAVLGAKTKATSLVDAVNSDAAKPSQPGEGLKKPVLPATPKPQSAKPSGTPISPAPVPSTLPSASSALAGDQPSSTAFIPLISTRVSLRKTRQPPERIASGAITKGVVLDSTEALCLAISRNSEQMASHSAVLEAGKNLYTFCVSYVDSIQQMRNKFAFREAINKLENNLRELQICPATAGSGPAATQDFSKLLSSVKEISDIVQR
# [12] = target: RAC-beta serine/threonine-protein kinase (Homo sapiens) (UniProt P31751); assay: Inhibition of AKT2 at 1 uM
# [13] = target: Serine/threonine-protein kinase BRSK1 (Homo sapiens) (UniProt Q8TDC3); assay: Inhibition of BRSK1 at 1 uM
# [14] = target: Serine/threonine-protein kinase BRSK2 (Homo sapiens) (UniProt Q8IWQ3); assay: Inhibition of BRSK2 at 1 uM
# [15] = target: Serine/threonine-protein kinase Chk1 (Homo sapiens) (UniProt O14757); assay: Inhibition of CHK1 at 2 uM
# [16] = target: Tyrosine-protein kinase CSK (Homo sapiens) (UniProt P41240); assay: Inhibition of CSK at 2 uM
# Sequence of Tyrosine-protein kinase CSK (Homo sapiens) (P41240 2-450 limits assumed): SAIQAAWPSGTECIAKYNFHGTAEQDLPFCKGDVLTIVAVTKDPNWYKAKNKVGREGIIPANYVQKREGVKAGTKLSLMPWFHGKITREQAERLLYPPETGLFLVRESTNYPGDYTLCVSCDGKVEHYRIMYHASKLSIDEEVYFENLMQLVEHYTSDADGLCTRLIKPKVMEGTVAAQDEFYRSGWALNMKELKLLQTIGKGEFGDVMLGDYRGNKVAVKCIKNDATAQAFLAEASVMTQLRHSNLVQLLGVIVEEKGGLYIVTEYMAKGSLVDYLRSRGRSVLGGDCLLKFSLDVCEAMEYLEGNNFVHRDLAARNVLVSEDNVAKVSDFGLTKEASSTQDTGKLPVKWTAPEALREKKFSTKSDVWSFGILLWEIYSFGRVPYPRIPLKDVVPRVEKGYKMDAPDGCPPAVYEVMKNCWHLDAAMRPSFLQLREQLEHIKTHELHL
# [17] = target: Tyrosine-protein kinase CSK (Homo sapiens) (UniProt P41240); assay: Inhibition of CSK at 1 uM
# [18] = target: Death-associated protein kinase 1 (Homo sapiens) (UniProt P53355); assay: Inhibition of DAPK1 at 1 uM
# [19] = target: Serine/threonine-protein kinase DCLK2 (Homo sapiens) (UniProt Q8N568); assay: Inhibition of DCAMKL2 at 1 uM
# [20] = target: Fibroblast growth factor receptor 4 (Homo sapiens) (UniProt P22455); assay: Inhibition of FGFR4 at 1 uM
# [21] = target: Insulin-like growth factor 1 receptor (Homo sapiens) (UniProt P08069); assay: Inhibition of IGF1R at 1 uM
# [22] = target: Tyrosine-protein kinase Lck (Homo sapiens) (UniProt P06239); assay: Inhibition of LCK at 2 uM
# [23] = target: Serine/threonine-protein kinase MARK1 (Homo sapiens) (UniProt Q9P0L2); assay: Inhibition of MARK1 at 1 uM
# [24] = target: Tyrosine-protein kinase Mer (Homo sapiens) (UniProt Q12866); assay: Inhibition of MER at 1 uM
# Sequence of Tyrosine-protein kinase Mer (Homo sapiens) (Q12866 whole entry): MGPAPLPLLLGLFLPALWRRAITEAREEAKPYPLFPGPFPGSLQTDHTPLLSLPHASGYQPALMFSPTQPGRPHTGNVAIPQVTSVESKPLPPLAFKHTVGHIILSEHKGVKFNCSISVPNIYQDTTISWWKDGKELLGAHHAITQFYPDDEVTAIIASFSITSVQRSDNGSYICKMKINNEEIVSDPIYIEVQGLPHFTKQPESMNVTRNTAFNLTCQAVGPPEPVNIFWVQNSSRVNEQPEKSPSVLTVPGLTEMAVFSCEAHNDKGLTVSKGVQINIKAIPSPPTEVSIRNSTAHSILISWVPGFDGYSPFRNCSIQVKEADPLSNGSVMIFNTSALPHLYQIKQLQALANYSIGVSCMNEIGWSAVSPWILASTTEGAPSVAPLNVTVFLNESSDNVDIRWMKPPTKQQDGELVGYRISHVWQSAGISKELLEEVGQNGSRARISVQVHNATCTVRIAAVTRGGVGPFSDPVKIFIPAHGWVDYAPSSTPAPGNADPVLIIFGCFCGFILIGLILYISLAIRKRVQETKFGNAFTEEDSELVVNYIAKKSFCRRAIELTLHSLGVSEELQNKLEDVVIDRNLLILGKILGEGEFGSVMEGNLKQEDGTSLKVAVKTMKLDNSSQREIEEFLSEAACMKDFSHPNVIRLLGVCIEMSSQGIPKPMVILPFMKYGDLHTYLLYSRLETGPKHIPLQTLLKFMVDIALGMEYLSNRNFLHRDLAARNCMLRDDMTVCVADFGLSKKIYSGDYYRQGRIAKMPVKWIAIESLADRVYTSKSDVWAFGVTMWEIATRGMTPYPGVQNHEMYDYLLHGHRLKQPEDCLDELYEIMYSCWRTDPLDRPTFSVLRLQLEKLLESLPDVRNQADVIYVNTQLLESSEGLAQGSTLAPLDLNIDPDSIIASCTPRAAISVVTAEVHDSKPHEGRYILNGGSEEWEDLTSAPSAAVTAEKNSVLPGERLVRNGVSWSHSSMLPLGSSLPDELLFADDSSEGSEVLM
# [25] = target: Misshapen-like kinase 1 (Homo sapiens) (UniProt Q8N4C8); assay: Inhibition of MINK at 1 uM
# [26] = target: Dual specificity mitogen-activated protein kinase kinase 4 (Homo sapiens) (UniProt P45985); assay: Inhibition of MKK4 at 2 uM
# [27] = target: Ribosomal protein S6 kinase alpha-5 (Homo sapiens) (UniProt O75582); assay: Inhibition of MSK1 at 1 uM
# Sequence of Ribosomal protein S6 kinase alpha-5 (Homo sapiens) (O75582 whole entry, looked up): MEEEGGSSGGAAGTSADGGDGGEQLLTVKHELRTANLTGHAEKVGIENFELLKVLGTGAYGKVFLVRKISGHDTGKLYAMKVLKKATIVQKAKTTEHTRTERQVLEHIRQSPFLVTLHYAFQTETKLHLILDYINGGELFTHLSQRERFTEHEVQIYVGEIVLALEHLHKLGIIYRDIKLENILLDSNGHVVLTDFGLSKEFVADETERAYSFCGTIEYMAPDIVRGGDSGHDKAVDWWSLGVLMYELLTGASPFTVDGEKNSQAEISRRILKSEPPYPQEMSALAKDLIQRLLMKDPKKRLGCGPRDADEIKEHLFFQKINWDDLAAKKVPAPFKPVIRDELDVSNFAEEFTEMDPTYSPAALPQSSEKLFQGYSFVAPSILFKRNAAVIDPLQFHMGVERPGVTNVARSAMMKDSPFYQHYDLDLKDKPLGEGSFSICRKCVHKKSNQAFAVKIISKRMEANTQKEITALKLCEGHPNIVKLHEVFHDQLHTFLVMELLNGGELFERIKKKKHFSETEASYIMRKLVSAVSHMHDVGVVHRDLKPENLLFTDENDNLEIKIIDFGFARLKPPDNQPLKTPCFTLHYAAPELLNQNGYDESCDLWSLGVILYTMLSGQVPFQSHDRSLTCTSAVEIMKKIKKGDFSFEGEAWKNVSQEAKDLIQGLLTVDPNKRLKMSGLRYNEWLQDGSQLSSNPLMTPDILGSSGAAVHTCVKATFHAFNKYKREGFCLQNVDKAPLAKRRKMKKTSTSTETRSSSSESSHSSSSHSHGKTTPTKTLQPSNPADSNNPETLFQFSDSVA
# [28] = target: Ribosomal protein S6 kinase alpha-4 (Homo sapiens) (UniProt O75676); assay: Inhibition of MSK2 at 1 uM
# [29] = target: Mitogen-activated protein kinase 12 (Homo sapiens) (UniProt P53778); assay: Inhibition of P38gamma at 2 uM
# [30] = target: Ribosomal protein S6 kinase beta-1 (Homo sapiens) (UniProt P23443); assay: Inhibition of P70S6K at 2 uM
# [31] = target: Serine/threonine-protein kinase PAK 1 (Homo sapiens) (UniProt Q13153); assay: Inhibition of PAK1 at 1 uM
# Sequence of Serine/threonine-protein kinase PAK 1 (Homo sapiens) (Q13153 whole entry): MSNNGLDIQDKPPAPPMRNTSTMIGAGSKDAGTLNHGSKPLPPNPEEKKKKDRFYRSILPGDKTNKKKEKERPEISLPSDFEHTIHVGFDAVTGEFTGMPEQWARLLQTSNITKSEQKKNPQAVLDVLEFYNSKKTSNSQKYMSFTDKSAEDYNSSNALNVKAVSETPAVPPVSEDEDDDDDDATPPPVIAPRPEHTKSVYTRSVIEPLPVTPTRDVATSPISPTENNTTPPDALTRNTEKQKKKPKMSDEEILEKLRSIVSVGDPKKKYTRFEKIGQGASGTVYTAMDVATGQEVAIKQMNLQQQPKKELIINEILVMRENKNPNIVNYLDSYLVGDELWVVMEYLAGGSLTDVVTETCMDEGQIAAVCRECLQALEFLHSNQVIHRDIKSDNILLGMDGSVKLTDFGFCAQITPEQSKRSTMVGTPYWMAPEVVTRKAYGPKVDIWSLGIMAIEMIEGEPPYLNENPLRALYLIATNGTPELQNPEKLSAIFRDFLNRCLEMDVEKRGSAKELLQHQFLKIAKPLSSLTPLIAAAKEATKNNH
# [32] = target: Serine/threonine-protein kinase PAK 2 (Homo sapiens) (UniProt Q13177); assay: Inhibition of PAK2 at 1 uM
# [33] = target: Serine/threonine-protein kinase MARK2 (Homo sapiens) (UniProt Q7KZI7); assay: Inhibition of PAR-1Balpha at 1 uM
# [34] = target: Serine/threonine-protein kinase pim-1 (Homo sapiens) (UniProt P11309); assay: Inhibition of PIM1 at 1 uM
# Sequence of Serine/threonine-protein kinase pim-1 (Homo sapiens) (P11309 whole entry, looked up): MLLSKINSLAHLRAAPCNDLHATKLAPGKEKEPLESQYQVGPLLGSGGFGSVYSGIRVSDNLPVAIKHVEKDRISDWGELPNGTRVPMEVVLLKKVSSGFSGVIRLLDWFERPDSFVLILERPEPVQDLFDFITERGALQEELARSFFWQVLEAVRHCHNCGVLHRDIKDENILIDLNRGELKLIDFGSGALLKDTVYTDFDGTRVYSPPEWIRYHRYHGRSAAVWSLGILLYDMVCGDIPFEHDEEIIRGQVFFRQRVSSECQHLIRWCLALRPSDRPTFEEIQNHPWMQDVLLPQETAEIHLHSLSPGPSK
# [35] = target: Protein kinase C beta type (Homo sapiens) (UniProt P05771); assay: Inhibition of PKCbeta1 at 1 uM
# [36] = target: Protein kinase C eta type (Homo sapiens) (UniProt P24723); assay: Inhibition of PKCeta at 1 uM
# Sequence of Protein kinase C eta type (Homo sapiens) (P24723 whole entry): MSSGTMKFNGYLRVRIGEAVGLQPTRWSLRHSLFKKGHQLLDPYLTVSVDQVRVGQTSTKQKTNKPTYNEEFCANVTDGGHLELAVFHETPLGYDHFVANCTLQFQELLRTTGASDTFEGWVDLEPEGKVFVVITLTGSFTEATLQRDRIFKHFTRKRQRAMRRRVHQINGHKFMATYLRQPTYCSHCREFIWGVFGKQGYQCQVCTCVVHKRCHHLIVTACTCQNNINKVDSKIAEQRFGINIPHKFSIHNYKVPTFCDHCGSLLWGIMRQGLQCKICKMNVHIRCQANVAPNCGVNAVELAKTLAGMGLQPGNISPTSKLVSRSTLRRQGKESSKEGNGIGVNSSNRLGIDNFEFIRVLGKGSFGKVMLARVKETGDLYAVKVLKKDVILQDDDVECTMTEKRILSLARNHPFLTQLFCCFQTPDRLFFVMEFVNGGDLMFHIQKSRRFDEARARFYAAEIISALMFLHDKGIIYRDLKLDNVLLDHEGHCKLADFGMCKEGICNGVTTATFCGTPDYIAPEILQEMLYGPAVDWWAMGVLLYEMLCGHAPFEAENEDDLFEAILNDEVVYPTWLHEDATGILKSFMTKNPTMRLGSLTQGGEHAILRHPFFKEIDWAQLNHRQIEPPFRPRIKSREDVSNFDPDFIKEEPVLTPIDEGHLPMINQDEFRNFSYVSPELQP
# [37] = target: Serine/threonine-protein kinase D3 (Homo sapiens) (UniProt O94806); assay: Inhibition of PRKD3 at 1 uM
# [38] = target: Protein-tyrosine kinase 2-beta (Homo sapiens) (UniProt Q14289); assay: Inhibition of PYK2 at 1 uM
# Aurora kinase A = target: T1, Aurora kinase A (Homo sapiens, UniProt O14965); assay: Inhibition of AURA
# T1 sequence (O14965 whole entry): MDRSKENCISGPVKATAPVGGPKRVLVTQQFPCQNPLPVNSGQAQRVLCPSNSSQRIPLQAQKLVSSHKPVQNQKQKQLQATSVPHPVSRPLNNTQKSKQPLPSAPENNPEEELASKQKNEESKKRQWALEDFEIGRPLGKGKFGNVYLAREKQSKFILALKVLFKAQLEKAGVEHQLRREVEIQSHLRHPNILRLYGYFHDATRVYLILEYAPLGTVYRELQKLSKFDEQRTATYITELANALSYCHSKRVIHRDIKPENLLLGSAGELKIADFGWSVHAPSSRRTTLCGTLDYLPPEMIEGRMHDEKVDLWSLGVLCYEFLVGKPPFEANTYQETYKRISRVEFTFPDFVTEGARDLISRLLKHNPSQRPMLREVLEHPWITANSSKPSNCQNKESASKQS
# [39] = Clearance in rat at 3 mg/kg, iv; assay type: ADME, organism-based; design: dose 3 mg/kg, route intravenous; conditions: in vivo
# [40] = Volume of distribution at steady state in rat at 3 mg/kg, iv; assay type: ADME, organism-based; design: dose 3 mg/kg, route intravenous; conditions: in vivo, read-out: Vdss
# [41] = Oral bioavailability in rat at 10 mg/kg; assay type: ADME, organism-based; conditions: in vivo
# [42] = Half life in rat at 10 mg/kg, po; assay type: ADME, organism-based; design: dose 10 mg/kg, route oral; conditions: in vivo
# [43] = Plasma concentration in rat at 10 mg/kg, po after 4 hrs; assay type: ADME, organism-based; design: dose 10 mg/kg, route oral
# [44] = Plasma concentration in rat at 10 mg/kg, po after 8 hrs; assay type: ADME, organism-based; design: dose 10 mg/kg, route oral
# [45] = Volume of distribution at steady state in mouse at 5 mg/kg, iv; assay type: ADME, organism-based; design: dose 5 mg/kg, route intravenous; conditions: in vivo, read-out: Vdss
smiles,measurement,setting,value
Cc1cnc(Nc2ccc(F)cc2Cl)nc1-c1c[nH]c(C(=O)N[C@H](CO)c2cccc(Cl)c2)c1,inhibition,[1],4%
same,inhibition,[2],3%
same,inhibition,[3],0%
same,inhibition,[4],5%
same,concentration at 8 h,[5],122 ng/mL
same,Ki,[6],> 4 µM
same,Ki,[7],> 4 µM
same,Ki,[8],> 10 µM
same,Ki,[9],> 10 µM
same,Ki,[10],> 10 µM
same,inhibition,[11],3%
same,inhibition,[12],0%
same,inhibition,[13],0%
same,inhibition,[14],2%
same,inhibition,[15],40%
same,inhibition,[16],0%
same,inhibition,[17],3%
same,inhibition,[18],2%
same,inhibition,[19],1%
same,inhibition,[20],0.3%
same,inhibition,[21],2%
same,inhibition,[22],3%
same,inhibition,[23],12%
same,inhibition,[24],9%
same,inhibition,[25],18%
same,inhibition,[26],69%
same,inhibition,[27],7%
same,inhibition,[28],6%
same,inhibition,[29],56%
same,inhibition,[30],18%
same,inhibition,[31],3%
same,inhibition,[32],0%
same,inhibition,[33],5%
same,inhibition,[34],0%
same,inhibition,[35],4%
same,inhibition,[36],2%
same,inhibition,[37],21%
same,inhibition,[38],6%
same,Ki,Aurora kinase A,0.54 µM
same,clearance,[39],24 mL/min/kg
same,Vd,[40],4.9 L/kg
same,bioavailability,[41],65%
same,half-life,[42],3 h
same,concentration at 4 h,[43],329 ng/mL
same,concentration at 8 h,[44],267 ng/mL
same,Vd,[45],5.6 L/kg

# Reference: ChEMBL document CHEMBL1154622, “Structure-guided design of potent and selective pyrimidylpyrrole inhibitors of extracellular signal-regulated kinase (ERK) using conformational control” (J Med Chem, 2009)
